From PubChem BioAssay (NCI)
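Test compounds were applied to cells in 96-well plates for 48 hours at 5 doses. GI50: concentration for 50% inhibition of growth. At the TGI there is no net growth.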

Key:
Test in all cases: DTP human tumour cell line panel, 48 h
SF-295 CNS = test system: SF-295 CNS
OVCAR-5 ovarian = test system: OVCAR-5 ovarian
SNB-75 CNS = test system: SNB-75 CNS
LOX IMVI melanoma = test system: LOX IMVI melanoma
NCI-H226 lung = test system: NCI-H226 lung
SR leukemia = test system: SR leukemia
A498 renal = test system: A498 renal
ACHN renal = test system: ACHN renal
RPMI-8226 leukemia = test system: RPMI-8226 leukemia
HCT-116 colon = test system: HCT-116 colon

| Compound | GI50 (SF-295 CNS) [µM] | TGI (SF-295 CNS) [µM] | GI50 (OVCAR-5 ovarian) [µM] | TGI (OVCAR-5 ovarian) [µM] | GI50 (SNB-75 CNS) [µM] | TGI (SNB-75 CNS) [µM] | GI50 (LOX IMVI melanoma) [µM] | TGI (LOX IMVI melanoma) [µM] | GI50 (NCI-H226 lung) [µM] | TGI (NCI-H226 lung) [µM] | GI50 (SR leukemia) [µM] | TGI (SR leukemia) [µM] | GI50 (A498 renal) [µM] | TGI (A498 renal) [µM] | GI50 (ACHN renal) [µM] | TGI (ACHN renal) [µM] | GI50 (RPMI-8226 leukemia) [µM] | TGI (RPMI-8226 leukemia) [µM] | GI50 (HCT-116 colon) [µM] | TGI (HCT-116 colon) [µM] |
| --- | --- | --- | --- | --- | --- | --- | --- | --- | --- | --- | --- | --- | --- | --- | --- | --- | --- | --- | --- | --- |
| COc1ccc(-n2cc(-c3ccc(OC)c(OC)c3)[nH]c2=S)cc1Cl | 41 | > 100 | > 100 | > 100 | 4.75 | 21 | > 100 | > 100 | > 100 | > 100 | > 100 | > 100 | > 100 | > 100 | > 100 | > 100 | > 100 | > 100 | > 100 | > 100 |
| C/C(=N\NC(N)=S)c1ccc(C)cc1C | – | > 100 | – | 94.1 | – | > 100 | – | > 100 | – | > 100 | – | > 100 | – | > 100 | – | > 100 | – | > 100 | – | > 100 |
| COc1ccc(CN2CCCC(C(=O)c3ccc(C(F)(F)F)cc3)C2)c(O)c1 (stereo not given) | 16.8 | 45.9 | 20.2 | 66.1 | 18.4 | > 100 | 18.4 | 35.3 | 35.5 | > 100 | 18 | 66.5 | 0.0189 | 33.1 | 33.6 | > 100 | 22 | 62.4 | 21.2 | > 100 |
| OCCNCO | – | > 100 | – | > 100 | – | > 100 | – | > 100 | – | > 100 | – | > 100 | – | > 100 | – | > 100 | – | > 100 | – | > 100 |
| C1CN2N3CCCC23C1 (stereo not given) | – | > 100 | – | > 100 | – | > 100 | – | > 100 | – | > 100 | – | > 100 | – | > 100 | – | > 100 | – | > 100 | – | > 100 |
